Data from patent publication US20050019869A1, “Chimeric neuropeptide Y receptors” (priority 2000, published 2005).
No end group written: not given here.

T1: NPY5ΔY1IC3 chimeric receptor (Homo sapiens, UniProt Q15761, DEL238-360/INS235IRLKRRNNMMDKMRDNKY/K361S)
T1 construct: made in house; host or cells: Sf9 insect cells infected with recombinant baculovirus (pBacPAK9 vector); purified membranes
T1 sequence (Q15761 with tags, fused parts or gaps INS235IRLKRRNNMMDKMRDNKY/DEL238-360/K361S): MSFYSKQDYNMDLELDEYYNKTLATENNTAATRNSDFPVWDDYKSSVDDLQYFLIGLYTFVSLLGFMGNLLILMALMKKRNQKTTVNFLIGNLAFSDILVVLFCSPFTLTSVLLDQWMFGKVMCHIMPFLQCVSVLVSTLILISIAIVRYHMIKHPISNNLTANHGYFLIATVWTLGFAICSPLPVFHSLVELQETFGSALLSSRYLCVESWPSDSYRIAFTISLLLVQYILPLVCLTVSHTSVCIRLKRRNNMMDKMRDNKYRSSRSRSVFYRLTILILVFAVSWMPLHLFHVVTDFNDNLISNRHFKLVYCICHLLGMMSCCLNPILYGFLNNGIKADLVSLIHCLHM

T2: NPY5ΔY1CT chimeric receptor (Homo sapiens, UniProt P25929+Q15761)
T2 construct: made in house; host or cells: Sf9 insect cells infected with recombinant baculovirus (pBacPAK9 vector); purified membranes
T2 sequence (Q15761+P25929 with tags, fused parts or gaps): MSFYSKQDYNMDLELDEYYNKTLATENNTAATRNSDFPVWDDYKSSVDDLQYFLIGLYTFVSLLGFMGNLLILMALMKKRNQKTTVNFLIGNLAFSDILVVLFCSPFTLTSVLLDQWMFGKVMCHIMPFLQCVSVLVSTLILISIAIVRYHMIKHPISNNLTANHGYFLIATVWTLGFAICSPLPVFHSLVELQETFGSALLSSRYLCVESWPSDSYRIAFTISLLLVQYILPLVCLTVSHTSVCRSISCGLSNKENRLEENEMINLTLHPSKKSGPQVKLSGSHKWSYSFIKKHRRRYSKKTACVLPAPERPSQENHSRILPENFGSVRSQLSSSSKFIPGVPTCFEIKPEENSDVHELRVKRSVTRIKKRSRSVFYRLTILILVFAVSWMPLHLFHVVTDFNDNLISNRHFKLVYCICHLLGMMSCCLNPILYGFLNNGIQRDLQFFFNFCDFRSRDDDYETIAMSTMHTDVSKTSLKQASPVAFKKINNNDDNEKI

T3: NPY5 receptor (Homo sapiens, UniProt Q15761)
T3 construct: made in house; host or cells: Sf9 insect cells infected with recombinant baculovirus; purified membranes
T3 sequence (Q15761 with tags, fused parts or gaps): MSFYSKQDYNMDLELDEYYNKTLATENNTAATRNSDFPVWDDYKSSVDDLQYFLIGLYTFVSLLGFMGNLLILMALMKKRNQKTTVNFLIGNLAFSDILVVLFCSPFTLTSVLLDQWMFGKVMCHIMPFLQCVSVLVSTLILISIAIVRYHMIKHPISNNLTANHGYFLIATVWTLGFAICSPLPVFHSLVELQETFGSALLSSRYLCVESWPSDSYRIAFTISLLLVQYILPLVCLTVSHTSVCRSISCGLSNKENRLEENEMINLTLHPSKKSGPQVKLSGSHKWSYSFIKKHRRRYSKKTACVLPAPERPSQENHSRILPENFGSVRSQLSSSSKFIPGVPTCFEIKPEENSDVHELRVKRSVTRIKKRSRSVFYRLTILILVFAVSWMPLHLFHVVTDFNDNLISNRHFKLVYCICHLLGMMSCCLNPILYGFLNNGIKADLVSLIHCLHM

T4: Human Y5 receptor (NPY5) (human, UniProt Q15761 1-445)
T4 construct: Full-length receptor expressed by baculovirus in Sf9 insect cells; assayed in purified Sf9 membranes, not on whole cells; also called native NPY5 receptor; hY5
T4 sequence: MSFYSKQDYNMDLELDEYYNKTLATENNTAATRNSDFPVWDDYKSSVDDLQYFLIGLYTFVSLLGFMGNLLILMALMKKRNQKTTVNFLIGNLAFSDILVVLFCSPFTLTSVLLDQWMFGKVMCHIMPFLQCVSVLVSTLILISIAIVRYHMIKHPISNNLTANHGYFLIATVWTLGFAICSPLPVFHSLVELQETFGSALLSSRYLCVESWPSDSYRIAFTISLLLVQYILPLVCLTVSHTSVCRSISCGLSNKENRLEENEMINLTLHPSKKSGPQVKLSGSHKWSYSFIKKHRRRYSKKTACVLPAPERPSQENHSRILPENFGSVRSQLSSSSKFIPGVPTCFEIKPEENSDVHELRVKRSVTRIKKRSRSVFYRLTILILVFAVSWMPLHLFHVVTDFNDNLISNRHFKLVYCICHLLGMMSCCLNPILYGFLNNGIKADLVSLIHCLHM

T5: Human NPY5ΔY1CT chimera (human)
T5 construct: Human NPY5 with its C-terminal intracellular domain replaced by that of human Y1; Expressed in Sf9 cells; assayed in purified membranes
T5 chain: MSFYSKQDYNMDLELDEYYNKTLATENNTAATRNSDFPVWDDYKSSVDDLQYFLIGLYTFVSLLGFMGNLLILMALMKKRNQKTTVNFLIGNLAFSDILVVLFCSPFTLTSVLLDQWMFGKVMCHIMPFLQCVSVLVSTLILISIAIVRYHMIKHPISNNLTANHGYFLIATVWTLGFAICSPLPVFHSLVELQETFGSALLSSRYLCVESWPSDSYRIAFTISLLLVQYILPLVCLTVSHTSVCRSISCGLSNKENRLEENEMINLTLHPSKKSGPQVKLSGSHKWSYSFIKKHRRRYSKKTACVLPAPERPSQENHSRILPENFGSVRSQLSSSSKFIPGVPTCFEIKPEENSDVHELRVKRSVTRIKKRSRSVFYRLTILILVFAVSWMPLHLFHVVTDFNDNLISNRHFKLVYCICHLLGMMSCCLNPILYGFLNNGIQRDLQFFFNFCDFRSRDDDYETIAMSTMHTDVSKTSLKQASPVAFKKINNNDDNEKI


Tests used:
[1] = molecular target: T1, NPY5ΔY1IC3 chimeric receptor; experiment: [125I]PYY competition binding, Sf9 membranes expressing NPY5ΔY1IC3; details: displacement of 0.050 nM [125I]PYY (porcine)
Experimental: (§1) 72 hours post-infection, a sample of cell suspension was analyzed for viability by trypan blue dye exclusion, and the remaining Sf9 cells were harvested via centrifugation (3000 rpm/10 minutes/4° C.).
(§2) Sf9 cell pellets prepared in Example 3 were resuspended in homogenization buffer (10 mM HEPES, 250 mM sucrose, 0.5 μg/ml leupeptin, 2 μg/ml Aprotinin, 200 μM PMSF, and 2.5 mM EDTA, pH 7.4) and homogenized using a POLYTRON homogenizer (setting 5 for 30 seconds). The homogenate was centrifuged (536×g/10 minutes/4° C.) to pellet the nuclei. The supernatant containing isolated membranes was decanted to a clean centrifuge tube, centrifuged (48,000×g/30 minutes, 4° C.) and resuspended in 30 ml homogenization buffer. This centrifugation and resuspension step was repeated twice. The final pellet was resuspended in ice cold Dulbecco's PBS containing 5 mM EDTA and stored at −80° C. in aliquots until needed. The protein concentration of the resulting membrane preparation was measured using the Bradford protein assay (Bio-Rad Laboratories, Hercules, Calif.).
(§3) Purified P2 membranes, prepared by the method given above in Example 4, were washed with PBS and resuspended by Dounce homogenization (tight pestle) in binding buffer (50 mM Tris-HCl, 5 mM KCl, 120 mM NaCl, 2 mM CaCl2, 1 mM MgCl2, 0.1% BSA, pH 7.4).
(§4) Nonspecific binding was determined in the presence of 1 μM NPY (human, American Peptide Co., Sunnyvale, Calif.) and accounted for less that 10% of total binding. Following a 2-hour incubation at room temperature, the reaction was terminated by rapid vacuum filtration. Samples were filtered over presoaked (in 1.0% polyethyeneimine for 2 hours prior to use) GF/C WHATMAN filters and rinsed 2 times with 5 mLs cold binding buffer without BSA. Remaining bound radioactivity was quantified by gamma counting. Ki and Hill coefficient (“nH”) were determined by fitting the Hill equation to the measured values with the aid of SIGMAPLOT software (SPSS Inc., Chicago).

[2] = molecular target: T2, NPY5ΔY1CT chimeric receptor; experiment: [125I]PYY competition binding, Sf9 membranes expressing NPY5ΔY1CT; details: displacement of 0.050 nM [125I]PYY (porcine)
Experimental: as §1, §2, §3, §4

NPY5 receptor = molecular target: T3, NPY5 receptor; experiment: [125I]PYY competition binding, Sf9 membranes expressing NPY5; details: displacement of 0.050 nM [125I]PYY (porcine)
Experimental: as §1, §2, §3, §4

Human Y5 receptor (NPY5) = molecular target: T4, Human Y5 receptor (NPY5); experiment: displacement of 0.050 nM [125I]PYY (porcine) from Sf9 membranes, filtration
Experimental: (§5) Following a 2-hour incubation at room temperature, the reaction was terminated by rapid vacuum filtration. Samples were filtered over presoaked (in 1.0% polyethyeneimine for 2 hours prior to use) GF/C WHATMAN filters and rinsed 2 times with 5 mLs cold binding buffer without BSA. Remaining bound radioactivity was quantified by gamma counting. Kᵢ and Hill coefficient (“nH”) were determined by fitting the Hill equation to the measured values with the aid of SIGMAPLOT software (SPSS Inc., Chicago).

Human NPY5ΔY1CT chimera = molecular target: T5, Human NPY5ΔY1CT chimera; experiment: as above
Experimental: as §5

| Molecule | nH (Hill coefficient) [1] | nH (Hill coefficient) [2] | nH (Hill coefficient) (NPY5 receptor) | Ki (Human Y5 receptor (NPY5)) [nM] | Ki (Human NPY5ΔY1CT chimera) [nM] |
| --- | --- | --- | --- | --- | --- |
| human D-Trp 32 NPY | 0.8 | 0.9 | 0.7 |  |  |
| human NPY 1-36 [HNPY 1-36] | 1.0 | 0.7 | 0.7 |  |  |
| human NPY 3-36 [HNPY 3-36] | 1.2 | 0.6 | 0.7 |  |  |
| human NPY 13-36 [HNPY 13-36] | 1.0 | 0.5 | 0.7 |  |  |
| PAEDMARYYSALRHYINLITRQRY (peptide, UniProt P01303 41-64, looked up, ends and bridges not checked, range 13-36; also called HNPY 13-36) [human NPY 13-36] |  |  |  | 20 |  |
| APLEPVYPGDNATPEQMAQYAADLRRYINMLTRPRY (peptide, UniProt P01298 30-65, looked up, also called hPP; HPP) [human pancreatic polypeptide] |  |  |  |  | 0.31 |
